The record followed here is patent publication US5550129A, “Benzopyranones, processes for their preparation and their use” (Willmar Schwabe GmbH & Co., priority 1992, dated 1996).

For assay [1], the system named is NMDA-induced death. Nature of the assay: NMDA test (25 mg/kg i.v.), protection against NMDA-induced death. Particulars: Mus musculus, 1 hr before test, NMDA 25 mg/kg i.v., proportion of surviving animals, read-out: Protective action; for responders at 50 mg/kg: 50 mg/kg oral; for responders at 20 mg/kg: 20 mg/kg oral. The assay is classed as in vivo, male NMRI mice.

The subject of assay [2] is NMDA-induced death. The description is as above. It counts as in vivo, male NMRI mice. Particulars: Mus musculus; for ED50: 1 h, oral, one hour before NMDA 25 mg/kg i.v., dose protecting 50% of animals against NMDA-induced death; for responders at 5 mg/kg: 5 mg/kg oral, 1 hr before test, NMDA 25 mg/kg i.v., proportion of surviving animals, read-out: Protective action. As for the experimental part: The following method was used to determine the neuroprotective/anticonvulsive activity of the compounds according to the invention of the general formula I: […]
In order to evaluate the neuroprotective activity, NMDA was administered intravenously in an amount of 25 mg/kg/10 ml to male NMRI mice having a body weight of 20-25 g. As a result of this administration the animals suffered clonic and in some cases also tonic convulsions, leading to death. Prevention of death is used as a criterion of the effectiveness of the investigated compounds.
All experimental animals had free access to food and water before the experiments. The test and reference substances were administered orally as a suspension in 0.2% agar or water, by means of a pharyngeal probe, in some cases with the aid of solubilizers such as PEG-400. Control animals received the same volume of solvents, if necessary with the addition of solubilizers. One hour after administration of the substance NMDA was administered intravenously and the occurrence of convulsions was observed.
The results of the tests carried out (NMDA 25 mg i.v.) at doses of 5 mg of the compounds according to the invention per kg body weight compared to known NMDA antagonists are given in Table 1. The percentage proportion of the surviving animals is given as % effect.
Table 1 also gives as ED-50 values those doses of the substances according to the invention and other NMDA antagonists, which in the NMDA i.v. test (25 mg/kg) one hour after administration protected 50% of the animals against NMDA-induced death.
The ED-50 values were determined according to the method of Lichtfield and Wilcoxon, J. Pharmacol. exp. Therapeut. 96, 99 (1949), in each case using 4-5 groups of animals each containing 10 animals per dose stage.

As usually defined, the ED50 is the dose at which the effect has come halfway, by size or by number of responders. A lower ED50 goes with greater potency. As for `COc1ccc2c(c1)[C@]13CCCC[C@@H]1[C@H](C2)N(C)CC3` [Dextromethorphan, reference compound], the responders at 50 mg/kg in assay [1] was found to be 50%. In assay [2], this molecule showed an ED50 of 66.7 mg/kg.
For `COc1ccc2c(C)c(CCN3CCN(c4ccccc4OC)CC3)c(=O)oc2c1` [Example 1, 7-methoxy-3-{2-[4-(2-methoxyphenyl)-1-piperazinyl]ethyl}-4-methyl-2H-1-benzopyran-2-one], in assay [2], it took a dose of 0.8 mg/kg to reach the 50% effect level (ED50) and the responders at 5 mg/kg came to 87.5%.
On the same counts, the results for `COc1cc2oc(=O)c(CCN3CCN(c4ccccc4OC)CC3)c(C)c2cc1O` [Example 2, 6-hydroxy-7-methoxy-3-{2-[4-(2-methoxyphenyl)-1-piperazinyl]ethyl}-4-methyl-2H-1-benzopyran-2-one] are 0.2 mg/kg and 100%.
With `COc1cc2oc(=O)c(CCN3CCN(c4ccccc4)CC3)c(C)c2cc1OC` [Example 3, 6,7-dimethoxy-4-methyl-3-[2-(4-phenyl-1-piperazinyl)ethyl]-2H-1-benzopyran-2-one], in assay [2], the responders at 5 mg/kg was 50%.
On to `COc1cc2oc(=O)c(CCN3CCN(c4ccccc4OC)CC3)c(C)c2cc1OC` [Example 4, 6,7-dimethoxy-3-{2-[4-(2-methoxyphenyl)-1-piperazinyl)ethyl]-4-methyl-2H-1-benzopyran-2-one], for which, in assay [2], it took a dose of 0.4 mg/kg to reach the 50% effect level (ED50) and the responders at 5 mg/kg came to 100%.
For `CCOc1cc2c(C)c(CCN3CCC(c4ccccc4)CC3)c(=O)oc2cc1OC` [Example 5, 6-ethoxy-7-methoxy-4-methyl-3-[2-(4-phenyl-1-piperidinyl)ethyl]-2H-1-benzopyran-2-one], in that order: 4.1 mg/kg and 75%.
Regarding `CCOc1cc2c(C)c(CCN3CCN(c4ccccc4)CC3)c(=O)oc2cc1OC` [Example 6, 6-ethoxy-7-methoxy-4-methyl-3-[2-(4-phenyl-1-piperazinyl)ethyl]-2H-1-benzopyran-2-one], in assay [2], the ED50 came to 2 mg/kg and the responders at 5 mg/kg stood at 87.5%.
On the same counts, the results for `CCOc1cc2c(C)c(CCN3CCN(c4ccccc4OC)CC3)c(=O)oc2cc1OC` [Example 7, 6-ethoxy-7-methoxy-3-{2-[4-(2-methoxyphenyl)-1-piperazinyl]ethyl}-4-methyl-2H-1-benzopyran-2-one] are 0.4 mg/kg and 100%.
For `COc1cc2oc(=O)c(CCN3CCN(c4ccccc4OC)CC3)c(C)c2cc1OC(C)C` [Example 8, 7-methoxy-3-{2-[4-(2-methoxyphenyl)-1-piperazinyl]ethyl}-4-methyl-6-(1-methylethoxy)-2H-1-benzopyran-2-one], in that order: 0.7 mg/kg and 100%.
Regarding `CCS(=O)(=O)Oc1cc2c(C)c(CCN3CCN(c4ccccc4OC)CC3)c(=O)oc2cc1OC` [Example 9, 6-(ethanesulphonyloxy)-7-methoxy-3-(2-[4-(2-methoxyphenyl)-1-piperazinyl]-ethyl)-4-methyl-2H-1-benzopyran-2-one], in assay [2], it took a dose of 0.6 mg/kg to reach the 50% effect level (ED50) and the responders at 5 mg/kg amounted to 100%.
In the case of `COc1ccccc1N1CCN(CCc2c(C)c3ccc(OC)c(OC)c3oc2=O)CC1` [Example 10, 7,8-dimethoxy-3-{2-[4-(2-methoxyphenyl)-1-piperazinyl]ethyl}-4-methyl-2H-1-benzopyran-2-one], in assay [2], it took a dose of 0.4 mg/kg to reach the 50% effect level (ED50) and the responders at 5 mg/kg came to 100%.
For the molecule `CCOc1ccc2c(C)c(CCN3CCN(c4ccccc4OC)CC3)c(=O)oc2c1OCC` [Example 11, 7,8-diethoxy-3-{2-[4-(2-methoxyphenyl)-1-piperazinyl]ethyl}-4-methyl-2H-1-benzopyran-2-one], in assay [2], the responders at 5 mg/kg is 100%.
For the molecule `COc1cc2oc(=O)c(CCN3CCC(c4ccccc4)CC3)c(C)c2c(OC)c1OC` [Example 12, 5,6,7-trimethoxy-4-methyl-3-[2-(4-phenyl-1-piperidinyl)ethyl]-2H-1-benzopyran-2-one], in assay [2], the ED50 was found to be 3.4 mg/kg and the responders at 5 mg/kg came to 75%.
Consider `COc1cc2oc(=O)c(CCN3CCN(c4ccccc4)CC3)c(C)c2c(OC)c1OC` [Example 13, 5,6,7-trimethoxy-4-methyl-3-[2-(4-phenyl-1-piperazinyl)ethyl]-2H-1-benzopyran-2-one], for which the responders at 5 mg/kg in assay [2] was 62.5%.
For `COc1cc(OC)c2c(C)c(CCN3CCC(c4ccccc4)CC3)c(=O)oc2c1` [Example 14, 5,7-dimethoxy-4-methyl-3-[2-(4-phenyl-1-piperidinyl)ethyl]-2H-1-benzopyran-2-one], in assay [2], the ED50 was 2.2 mg/kg and the responders at 5 mg/kg is 87.5%.
Regarding `COc1cc(OC)c2c(C)c(CCN3CCN(c4ccccc4)CC3)c(=O)oc2c1` [Example 15, 5,7-dimethoxy-4-methyl-3-[2-(4-phenyl-1-piperazinyl)ethyl]-2H-1-benzopyran-2-one], in assay [2], the ED50 amounted to 1 mg/kg and the responders at 5 mg/kg is 87.5%.
For `COc1ccccc1N1CCN(CCc2c(C)c3c(O)cc(O)cc3oc2=O)CC1` [Example 16, 5,7-dihydroxy-3-{2-[4-(2-methoxyphenyl)-1-piperazinyl]ethyl}-4-methyl-2H-1-benzopyran-2-one], in assay [2], the ED50 is 0.2 mg/kg and the responders at 5 mg/kg amounted to 100%.
On the same counts, the results for `COc1cc(OC)c2c(C)c(CCN3CCN(c4ccccc4OC)CC3)c(=O)oc2c1` [Example 17, 5,7-dimethoxy-3-{2-[4-(2-methoxyphenyl)-1-piperazinyl]ethyl}-4-methyl-2H-1-benzopyran-2-one] are 0.2 mg/kg and 100%.
`CCOc1cc(OCC)c2c(C)c(CCN3CCN(c4ccccc4OC)CC3)c(=O)oc2c1` [Example 18, 5,7-diethoxy-3-{2-[4-(2-methoxyphenyl)-1-piperazinyl]ethyl}-4-methyl-2H-1-benzopyran-2-one]: in assay [2], it took a dose of 0.6 mg/kg to reach the 50% effect level (ED50) and the responders at 5 mg/kg worked out at 100%.
In the case of `CCCOc1cc(OCCC)c2c(C)c(CCN3CCN(c4ccccc4OC)CC3)c(=O)oc2c1` [Example 19, 3-{2-[4-(2-methoxyphenyl)-1-piperazinyl]ethyl}-4-methyl-5,7-dipropoxy-2H-1-benzopyran-2-one], the responders at 5 mg/kg in assay [2] was found to be 100%.
On the same count and under the same terms, for `CCOc1ccccc1N1CCN(CCc2c(C)c3c(OC)cc(OC)cc3oc2=O)CC1` [Example 20, 3-{2-[4-(2-ethoxyphenyl)-1-piperazinyl]ethyl}-5,7-dimethoxy-4-methyl-2H-1-benzopyran-2-one] the value was 100%.
In the case of `COc1cc(OC)c2c(C)c(CCN3CCN(c4ccccc4C)CC3)c(=O)oc2c1` [Example 21, 5,7-dimethoxy-4-methyl-3-{2-[4-(2-methylphenyl)-1-piperazinyl]ethyl}-2H-1-benzopyran-2-one], in assay [2], the responders at 5 mg/kg is 87.5%.
With `COc1cc(OC)c2c(C)c(CCN3CCN(c4ccccc4F)CC3)c(=O)oc2c1` [Example 22, 3-{2-[4-(2-fluorophenyl)-1-piperazinyl]ethyl}-5,7-dimethoxy-4-methyl-2H-1-benzopyran-2-one], the responders at 5 mg/kg in assay [2] was found to be 100%.
With `COc1cc(OC)c2c(C)c(CCN3CCN(c4cccc(C(F)(F)F)c4)CC3)c(=O)oc2c1` [Example 23, 5,7-dimethoxy-4-methyl-3-{2-[4-(3-trifluoromethylphenyl)-1-piperazinyl]ethyl}-2H-1-benzopyran-2-one], in assay [2], the responders at 5 mg/kg amounted to 25%.
On the same count and under the same terms, for `COc1cc(OC)c2c(C)c(CCN3CCC(O)(c4ccccc4)CC3)c(=O)oc2c1` [Example 24, 3-[2-(4-hydroxy-4-phenyl-1-piperidinyl)ethyl]-5,7-dimethoxy-4-methyl-2H-1-benzopyran-2-one] the value was 25%; for `COc1cc(OC)c2c(C)c(CCN3CCN(c4ccccc4O)CC3)c(=O)oc2c1` [Example 25, 3-{2-[4-(2-hydroxyphenyl)-1-piperazinyl]-ethyl}-5,7-dimethoxy-4-methyl-2H-1-benzopyran-2-one], 87.5%.
`Fc1ccc(C(c2ccc(F)cc2)N2CCN(C/C=C/c3ccccc3)CC2)cc1` [Flunarizin, reference compound]: in assay [1], the responders at 50 mg/kg worked out at 100%. This molecule had an ED50 in assay [2] of 22.8 mg/kg.
Regarding `CNC1(c2ccccc2Cl)CCCCC1=O` (stereo not shown) [Ketamin], in assay [1], the responders at 20 mg/kg is 0%.
In the case of `COCCOC(=O)C1=C(C)NC(C)=C(C(=O)OC(C)C)C1c1cccc([N+](=O)[O-])c1` (stereo not shown) [Nimodipin, reference compound], the responders at 20 mg/kg in assay [1] is 87.5%. In assay [2], the 50% effect level (ED50) was put at a dose of 18.5 mg/kg.
For the molecule `COc1ccc(CCN(C)CCCC(C#N)(c2ccc(OC)c(OC)c2)C(C)C)cc1OC` (stereo not shown) [Verapamil, reference compound], in assay [1], the responders at 20 mg/kg was found to be 87.5%. In assay [2], the ED50 was found to be 17.3 mg/kg.
